According to patent US12692235B2, “Fused ring compound and application thereof” (WUHAN LL SCIENCE AND TECHNOLOGY DEVELOPMENT CO., LTD., priority 2019, dated 2026):

Molecular target: T1, hP2X4 (human purinergic P2X receptor subtype 4) (Homo sapiens, UniProt Q99571)
T1 sequence (Q99571 1-404 isoform Q99571-2): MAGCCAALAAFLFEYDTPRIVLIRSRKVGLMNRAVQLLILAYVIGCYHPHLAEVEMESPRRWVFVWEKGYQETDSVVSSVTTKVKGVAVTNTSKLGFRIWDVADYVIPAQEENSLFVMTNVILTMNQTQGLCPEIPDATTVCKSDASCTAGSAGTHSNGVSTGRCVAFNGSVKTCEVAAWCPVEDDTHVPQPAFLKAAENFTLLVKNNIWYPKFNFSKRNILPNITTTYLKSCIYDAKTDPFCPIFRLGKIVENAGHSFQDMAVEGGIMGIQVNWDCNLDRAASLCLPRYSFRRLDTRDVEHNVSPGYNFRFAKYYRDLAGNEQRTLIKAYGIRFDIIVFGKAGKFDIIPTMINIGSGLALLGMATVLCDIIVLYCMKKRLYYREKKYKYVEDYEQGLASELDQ
Settings: P2X4 IC50 (nM), HEK293 cells stably expressing hP2X4; agonist BZ-ATP 2.5 μM; FLIPR calcium
Protocol: Cells at 400,000 cells/mL were seeded into a 384-well plate (10,000 cells/well) 18-24 h prior to the FLIPR experiment and then incubated overnight in a cell incubator. […] Each well was added with 20 μL of 0.5×Calcium 6 fluorescent dye (Molecular Devices, R8190) and then the cells were subjected to dye-loading incubation at 37° C. for 1.5 h. Each well was added with 10 μL of respective test compound (dissolved in DMSO at a concentration of 10 mM and serially diluted with buffer) or vehicle and the mixture was equilibrated for 30 min at room temperature.

Compound	IC50 [nM]
NS(=O)(=O)c1cc(NC(=O)Cc2ccccc2Cl)cc2c(Cl)nccc12 [Compound 2, N-(1-chloro-5-sulfamoylisoquinolin-7-yl)-2-(2-chlorophenyl)acetamide]	10 to 50
NS(=O)(=O)c1cc(NC(=O)Cc2ccccc2Cl)cc2ncccc12 [Compound 4, 2-(2-chlorophenyl)-N-(5-sulfamoylquinolin-7-yl)acetamide]	10 to 50
NS(=O)(=O)c1cc(NC(=O)Cc2ccccc2Cl)cc2cnc(Cl)cc12 [Compound 5, N-(3-chloro-5-sulfamoylisoquinolin-7-yl)-2-(2-chlorophenyl)acetamide]	50 to 200
NS(=O)(=O)c1cc(NC(=O)Cc2ccccc2Cl)cc2cnccc12 [Compound 6]	10 to 50
NS(=O)(=O)c1cc(NC(=O)Cc2ccccc2Cl)cc2cnc(F)cc12 [Compound 7, 2-(2-chlorophenyl)-N-(3-fluoro-5-sulfamoylisoquinolin-7-yl)acetamide]	50 to 200
CCOc1nccc2c(S(N)(=O)=O)cc(NC(=O)Cc3ccccc3Cl)cc12 [Compound 8, 2-(2-chlorophenyl)-N-(1-ethoxy-5-sulfamoylisoquinolin-7-yl)acetamide]	10 to 50
CC(C)Oc1nccc2c(S(N)(=O)=O)cc(NC(=O)Cc3ccccc3Cl)cc12 [Compound 9, 2-(2-chlorophenyl)-N-(1-isopropoxy-5-sulfamoylisoquinolin-7-yl)acetamide]	10 to 50
NS(=O)(=O)c1cc(NC(=O)Cc2ccccc2Cl)cc2c(OC3CC3)nccc12 [Compound 10, 2-(2-chlorophenyl)-N-(1-cyclopropoxy-5-sulfamoylisoquinolin-7-yl)acetamide]	10 to 50
NS(=O)(=O)c1cc(NC(=O)Cc2ccccc2Cl)cc2c(OC3CCC3)nccc12 [Compound 11, 2-(2-chlorophenyl)-N-(1-cyclobutoxy-5-sulfamoylisoquinolin-7-yl)acetamide]	10 to 50
NS(=O)(=O)c1cc(NC(=O)Cc2ccccc2Cl)cc2c(OC3CNC3)nccc12 [Compound 12, N-(1-(azetidin-3-oxy)-5-sulfamoylisoquinolin-7-yl)-2-(2-chlorophenyl)acetamide]	10 to 50
NS(=O)(=O)c1cc(NC(=O)Cc2ccccc2Cl)cc2c(OC3CCCC3)nccc12 [Compound 13]	10 to 50
CC(C)COc1nccc2c(S(N)(=O)=O)cc(NC(=O)Cc3ccccc3Cl)cc12 [Compound 14, 2-(2-chlorophenyl)-N-(1-isobutoxy-5-sulfamoylisoquinolin-7-yl)acetamide]	10 to 50
CC(C)CCOc1nccc2c(S(N)(=O)=O)cc(NC(=O)Cc3ccccc3Cl)cc12 [Compound 15, 2-(2-chlorophenyl)-N-(1-(isopentyloxy)-5-sulfamoylisoquinolin-7-yl)acetamide]	50 to 200
NS(=O)(=O)c1cc(NC(=O)Cc2ccccc2Cl)cc2c(OCC3CC3)nccc12 [Compound 16]	10 to 50
NS(=O)(=O)c1cc(NC(=O)Cc2ccccc2Cl)cc2c(OCCC3CC3)nccc12 [Compound 17, 2-(2-chlorophenyl)-N-(1-(2-cyclopropylethoxy)-5-sulfamoylisoquinolin-7-yl)acetamide]	50 to 200
NS(=O)(=O)c1cc(NC(=O)Cc2ccccc2Cl)cc2cncc(F)c12 [Compound 18, 2-(2-chlorophenyl)-N-(4-fluoro-5-sulfamoylisoquinolin-7-yl)acetamide]	50 to 200
NS(=O)(=O)c1cc(NC(=O)Cc2ccccc2Cl)cc2cnc(C(F)(F)F)cc12 [Compound 19, 2-(2-chlorophenyl)-N-(−5-sulfamoyl-3-(trifluoromethyl)isoquinolin-7-yl)acetamide]	< 10
N#Cc1cc2c(S(N)(=O)=O)cc(NC(=O)Cc3ccccc3Cl)cc2cn1 [Compound 20, 2-(2-chlorophenyl)-N-(3-cyano-5-sulfamoylisoquinolin-7-yl)acetamide]	10 to 50

Other lines, results leading:

IC50 [nM]	Compound
< 10	NS(=O)(=O)c1cc(NC(=O)Cc2ccccc2Cl)cc2cnc(C3CC3)cc12 [Compound 21, 2-(2-chlorophenyl)-N-(3-cyclopropyl-5-sulfamoylisoquinolin-7-yl)acetamide]
10 to 50	NS(=O)(=O)c1cc(NC(=O)Cc2ccccc2Cl)cc2cnc(-n3ccnc3)cc12 [Compound 22, N-(3-(1H-imidazol-1-yl)-5-sulfamoylisoquinolin-7-yl)-2-(2-chlorophenyl)acetamide]
< 10	NS(=O)(=O)c1cc(NC(=O)Cc2ccccc2Cl)cc2c(C3CC3)nccc12 [Compound 23, 2-(2-chlorophenyl)-N-(1-cyclopropyl-5-sulfamoylisoquinolin-7-yl)acetamide]
< 10	CC(C)c1nccc2c(S(N)(=O)=O)cc(NC(=O)Cc3ccccc3Cl)cc12 [Compound 24, 2-(2-chlorophenyl)-N-(1-isopropyl-5-sulfamoylisoquinolin-7-yl)acetamide]
< 10	NS(=O)(=O)c1cc(NC(=O)Cc2ccccc2Cl)cc2c(C(F)F)nccc12 [Compound 25, 2-(2-chlorophenyl)-N-(1-(difluoromethyl)-5-sulfamoylisoquinolin-7-yl)acetamide]
< 10	COc1nccc2c(S(N)(=O)=O)cc(NC(=O)Cc3c(F)cccc3Cl)cc12 [Compound 26, 2-(2-chloro-6-fluorophenyl)-N-(1-methoxy-5-sulfamoylisoquinolin-7-yl)acetamide]
< 10	COc1nccc2c(S(N)(=O)=O)cc(NC(=O)Cc3cc(F)c(F)cc3Cl)cc12 [Compound 27, 2-(2-chloro-4,5-difluorophenyl)-N-(1-methoxy-5-sulfamoylisoquinolin-7-yl)acetamide]
< 10	NS(=O)(=O)c1cc(NC(=O)Cc2ccccc2Cl)cc2c(OC(F)F)nccc12 [Compound 28, 2-(2-chlorophenyl)-N-(1-(difluoromethoxy)-5-sulfamoylisoquinolin-7-yl)acetamide]
10 to 50	NS(=O)(=O)c1cc(NC(=O)Cc2ccccc2Cl)cc2c(C(F)(F)F)nccc12 [Compound 29, 2-(2-chlorophenyl)-N-(-5-sulfamoyl-1-(trifluoromethyl)isoquinolin-7-yl)acetamide]
10 to 50	NS(=O)(=O)c1cc(NC(=O)Cc2ccccc2Cl)cc2c(Oc3ccccc3)nccc12 [Compound 30, 2-(2-chlorophenyl)-N-(1-phenoxy-5-sulfamoylisoquinolin-7-yl)acetamide]
10 to 50	NS(=O)(=O)c1cc(NC(=O)Cc2ccccc2Cl)cc2c(Oc3ccc(F)cc3)nccc12 [Compound 31, 2-(2-chlorophenyl)-N-(1-(4-fluorophenoxy)-5-sulfamoylisoquinolin-7-yl)acetamide]
10 to 50	NS(=O)(=O)c1cc(NC(=O)Cc2ccccc2Cl)cc2c(OCc3ccc(F)cc3)nccc12 [Compound 32, 2-(2-chlorophenyl)-N-(1-((4-fluorobenzyl)oxo)-5-sulfamoylisoquinolin-7-yl)acetamide]
10 to 50	CC(=O)N1CC(Oc2nccc3c(S(N)(=O)=O)cc(NC(=O)Cc4ccccc4Cl)cc23)C1 [Compound 33, N-(1-((1-acetylazetidin-3-yl)oxo)-5-sulfamoylisoquinolin-7-yl)-2-(2-chlorophenyl)acetamide]
10 to 50	Cc1ccc(Oc2nccc3c(S(N)(=O)=O)cc(NC(=O)Cc4ccccc4Cl)cc23)cc1 [Compound 34, 2-(2-chlorophenyl)-N-(5-sulfamoyl-1-(p-tolyloxy)isoquinolin-7-yl)acetamide]
